Assays:
human CD8+ T cells = assay: activation of human CD8+ T cells with anti-CD3 and anti-CD28, flow cytometry; format: cell-based; settings: 10 μM; 7 days
Experimental: Further investigation was conducted to discover whether the augmented cytotoxic effector phenotype observed in mouse CD8^+ T cells post-activation with HDAC3 inhibition was also true in human CD8^+ T cells. Total CD8^+ T cells were negatively isolated from the peripheral blood of healthy human donors, and activated in vitro using plate-bound anti-CD3 and soluble anti-CD28 antibodies in the presence or absence of 0 μM (vehicle control) or 10 μM RGFP966. Following 7 days of in vitro activation, without additional IL-2 supplementation, CD8^+ T cells were analyzed by flow cytometry for expression of markers associated with T cell activation, effector cytokines, and cytotoxicity. The results are summarized in the graphs of FIG. 13A.

other HDACs = settings: reported; cited from earlier work

Compound: Nc1cc(F)ccc1NC(=O)/C=C/c1cnn(C/C=C/c2ccccc2)c1 [RGFP966]
- expression of CD25 (human CD8+ T cells): upregulation
- expression of CD44 (human CD8+ T cells): upregulation
- expression of granzyme B (human CD8+ T cells): upregulation
- concentration range at which other HDACs are not inhibited (other HDACs): < 15 µM

From patent US12440451B2, “Compositions and methods using an epigenetic inhibitor” (DANA-FARBER CANCER INSTITUTE, INC., priority 2017, dated 2025)
